Measurements: BindingDB's records for doi:10.1021/jm00168a025 (State University of New York, 1990)
pIC50: −log10 of the molar value.

Target: Squalene monooxygenase (Sus scrofa)
Assay: Inhibition of pig liver squalene epoxidase

| SMILES | pIC50 |
| --- | --- |
| CC(C)=CCC/C(C)=C/CC/C(C)=C/CC/C=C(\C)CC/C=C(\C)CCCCO | 5.40 |
| CC(C)=CCC/C(C)=C/CC/C(C)=C/CCCO | < 3.40 |
| CC(C)=CCC/C(C)=C/CC/C(C)=C/CC/C=C(\C)CCCO | 4.00 |
| CC(C)=CCC/C(C)=C/CC/C(C)=C/CC/C=C(\C)CC/C=C(\C)CC/C=C(\C)CCCO | < 3.40 |
| CC(C)=CCC/C(C)=C/CC/C(C)=C/CC/C=C(\C)CC/C=C(\C)CCCO | 5.40 |
